# Assay results published in PubChem BioAssay AID489027 (Sanford-Burnham Center for Chemical Genomics, 2010).
# Calls of active or inactive are those of the source. No rule for the calls is given here.
# Target: UPR counterscreen luciferase reporter, luminescence
# Test: luciferase reporter activation, UPR counterscreen line – cell-based, luminescence, counter-screen for adaptive UPR activator project, dose response (AID 489027)
row,SMILES,EC50
1,O=c1[nH]c(O)c(/C=C2/C=CC(c3cc(Cl)ccc3Cl)=N2)c(=O)[nH]1,6.12 µM
2,O=C(Nc1ccc(Oc2ccc(NC(=O)Nc3ccccc3Cl)cc2)cc1)Nc1ccccc1Cl,> 80 µM (inactive)
3,C=CCN1C(=O)/C(=C2/Sc3ccc(OC)cc3N2C)SC1=Nc1cccc(O)c1,> 80 µM (inactive)
4,Cc1cc(C)cc(NC(=O)/C(C#N)=C/c2cn(CC(=O)NCc3ccco3)c3ccccc23)c1,7.27 µM
5,COC(=O)c1ccc(COc2ccccc2/C=C(\C#N)C(=O)Nc2c(C)cccc2C)cc1,17.4 µM
6,Cc1ccc(Cn2c(=O)n(-c3ccccc3)c(=O)c3ccc(C(=O)NCc4ccco4)cc32)cc1,> 80 µM (inactive)
7,Cn1c(=O)c2c(SCC(=O)Nc3ccccc3F)nc(-c3ccccc3F)nc2n(C)c1=O,inactive
8,Cc1ccc2nc(Nc3nc(-c4ccccc4)cc(=O)[nH]3)nc(C)c2c1,> 80 µM (inactive)
9,CCCNC(=O)/C(C#N)=C1\N=C(NC(=O)c2cccs2)c2ccccc21,> 80 µM (inactive)
10,C#CCn1c(=NC(=O)c2ccc(S(=O)(=O)N3CCc4ccccc4C3)cc2)sc2cc(S(N)(=O)=O)ccc21,> 80 µM (inactive)
11,O=C(Nc1nc2ccc(Cl)cc2s1)c1ccc(N2CCCCC2)c([N+](=O)[O-])c1,inactive
12,C=CCN(CC=C)S(=O)(=O)c1ccc(C(=O)Nc2nc3c(s2)CCc2ccccc2-3)cc1,> 80 µM (inactive)
13,CCCCCCCCCCOC(=O)Cn1c(COc2ccc(Cl)cc2)[n+](C)c2ccccc21,> 80 µM (inactive)
14,CCOC(=O)c1[nH]c2ccc(Cl)cc2c1NC(=O)/C=C/c1ccc2c(c1)OCO2,inactive
15,O=C(COc1ccc(/C=N/NC(=O)c2cc3ccccc3o2)cc1Br)Nc1ccccc1,3.69 µM
16,N#CCC(=O)N/N=C/c1cn(Cc2cccc3ccccc23)c2ccccc12,> 80 µM (inactive)
17,CN(C)CCCN(C(=O)c1cc(-c2cccs2)nc2ccccc12)c1nc2ccc(F)cc2s1,15.9 µM
18,Cn1c(-c2ccccc2)c(/C=N/NC(=O)c2ccc(O)cc2)c2ccccc21,> 80 µM (inactive)
19,Cc1nn(Cc2c(Cl)cccc2Cl)c(C)c1NC(=O)c1cn(-c2ccccc2)nc1-c1ccccc1,3.67 µM
20,C=CCOc1ccc2cccc(/C=N/NC(=O)c3cc4cc([N+](=O)[O-])ccc4s3)c2c1,inactive
21,CN(C)CCOc1ccc(-c2c(-c3ccccc3)sc3ccccc23)cc1,17 µM
22,O=C(C[C@@H]1C/C=C/CC[C@H](Cc2ccc(F)cc2)C(=O)OC[C@@H](Cc2ccccc2)NC1=O)N[C@H](CO)Cc1ccccc1,14.4 µM
23,COc1cc(NC(=O)c2ccc(C)cc2C)ccc1NC(=O)c1cc2ccccc2o1,inactive

row,SMILES,EC50
1,CCOC(=O)C1=C(C)n2c(s/c(=C/c3cccc([N+](=O)[O-])c3)c2=O)=NC1c1ccc(O)c(OC)c1 (configuration not stated),inactive
2,C/C(=N/NC(=O)c1ccc(C)s1)c1cccc(NC(=O)COc2ccc(Cl)cc2C)c1,20 µM
3,Cc1ccc2nc(N(CCCN(C)C)C(=O)c3ccc(S(=O)(=O)N4CCc5ccccc5C4)cc3)sc2c1,10.9 µM
4,OCCCn1c(C2CCCN2c2nc(-c3ccc(Cl)cc3)cs2)nc2cc(Cl)c(N3CCCCC3)cc21 (configuration not stated),inactive
5,NCCc1c(-c2ccccc2)n(-c2ccccc2)c2ccccc12,17.9 µM
6,Brc1ccc(-c2ccc(/C=N/Nc3nncc(-c4ccccc4)n3)o2)cc1,17.4 µM
7,Cc1ccc(C(=O)Cn2c(C(=O)/C=C/c3ccccc3)nc3ccccc32)cc1,10.9 µM
8,CCOC(=O)c1sc(-c2ccccc2)cc1NC(=O)Nc1ccc([N+](=O)[O-])cc1,16.2 µM
9,O=C(Nc1ccc2oc(-c3ccccc3Cl)nc2c1)c1cncc(Br)c1,> 80 µM (inactive)
10,CCc1cc2c(=O)c(-c3cnn(-c4ccccc4)c3)c(C)oc2cc1OCC(=O)Nc1cccc(C)c1,11.5 µM
11,N#Cc1cnn2c1nc(N1CCCCC1)c1ccccc12,> 80 µM (inactive)
12,Cc1cc(-n2c(SCC(=O)Nc3ccc(F)c(F)c3)nc3n[nH]c(C)c3c2=N)ccc1Cl,> 80 µM (inactive)
13,C#CCOCCOCCOCCNc1nc(N2CCN(C(=O)CCCCCCCCCCNC(=O)[C@H](CCCCN)n3cc(C[C@@H](C)CC)nn3)CC2)nc(N2CCN(C(=O)CCCCCCCCCCNC(=O)[C@H](CCCN=C(N)N)n3cc(C[C@@H](C)CC)nn3)CC2)n1,> 80 µM (inactive)
14,CCOC(=O)c1cc(-c2ccccc2)sc1NC(=O)c1ccc(OC)cc1,inactive
15,COC(=O)C1C(O)=C(C=Nc2cccc3ccccc23)C(=O)CC1(C)C (configuration not stated),1.41 µM
16,CCOc1cc(/C=C2/NC(=S)NC2=O)ccc1OCc1ccc([N+](=O)[O-])cc1,inactive
17,c1ccc(Oc2c3ccccc3nc3ccccc23)cc1,inactive
18,Fc1ccc(Nc2nc(NCc3ccco3)c3ccccc3n2)cc1,> 80 µM (inactive)
19,CCOc1cc(/C=N\Nc2ccc([N+](=O)[O-])cc2)ccc1OCC(=O)Nc1ccc(C)c(C)c1,> 80 µM (inactive)
20,CC(=O)c1cccc(Nc2nc(-c3cccc([N+](=O)[O-])c3)cs2)c1,> 80 µM (inactive)
21,Cc1ccc(CNC(=O)c2ccc3c(=O)n4c(-c5ccc(C)cc5)csc4nc3c2)cc1,> 80 µM (inactive)
22,Cc1ccc(-c2nc(N/N=C/c3cccc([N+](=O)[O-])c3)c3ccccc3n2)cc1,> 80 µM (inactive)
23,CC(C)(C)c1csc(NC(=O)c2ccc(Cl)s2)n1,> 80 µM (inactive)

row,SMILES,EC50
1,CCOc1ccc(-n2nc3ccc(NC(=O)c4ccc5c(c4)OCCO5)cc3n2)cc1,inactive
2,CC(C)(C)c1ccc(C(=O)Nc2ccc(O)c3c(=O)cc(-c4cccc(Cl)c4)oc23)cc1,> 80 µM (inactive)
3,COc1ccc(-c2cc(-c3ccccc3)c(C#N)c(S(C)(=O)=O)n2)cc1,5.05 µM
4,CCCc1nc2c(c(=O)c3ccccc3n2C)c(=O)n1C1CCCCCC1,> 80 µM (inactive)
5,CCC/C(=N/Nc1ccc(Cl)cc1)c1cnnc(-c2ccccc2)n1,inactive
6,C/C(=N/Nc1cc(-c2ccccc2)nc(-c2ccccc2)n1)c1ccc(O)cc1,15.4 µM
7,COc1cc(N(C(=O)Cc2cccs2)C(C(=O)NC2CCCCC2)c2ccc(C)cc2)ccc1-n1cnnn1 (configuration not stated),> 80 µM (inactive)
8,N#Cc1ccccc1NC(=O)COc1c(Br)cc(Br)c2cccnc12,inactive
9,Cc1nc2cc(NC(=O)CSc3nc4c(C)cccc4cc3C#N)ccc2s1,> 80 µM (inactive)
10,N#C/C(=C/c1ccc(N2CCCC2)c([N+](=O)[O-])c1)c1nc2ccccc2[nH]1,> 80 µM (inactive)
11,CCOC(=O)c1cc(NC(=O)c2ccc(Cl)cc2)c(=O)n2c1oc1ccc(Cl)cc12,> 80 µM (inactive)
12,COc1ccc(OC)c(Nc2nc(NCc3ccco3)nc(N)c2[N+](=O)[O-])c1,inactive
13,COc1ccc(-c2ccc(C#N)c(SCC(=O)Nc3sc4c(c3C#N)CCC4)n2)cc1OC,> 80 µM (inactive)
14,O=C(Nc1ccc(-c2nc3cc(NC(=O)c4cccs4)ccc3o2)cc1)c1cccs1,4.72 µM
15,COC(=O)c1c(C)oc2ccc(N(C(=O)Oc3ccccc3)S(=O)(=O)c3ccc(Cl)c([N+](=O)[O-])c3)cc12,12.5 µM
16,CCC(C)(C)C1CCC2(CC1)NC(=O)N(CC(=O)N1CCN(S(=O)(=O)c3cc(C)ccc3C)CC1)C2=O (configuration not stated),19.3 µM
17,COc1ccccc1-c1cc(-c2ccccc2)nc(SC(C(N)=O)c2ccccc2)c1C#N (configuration not stated),> 80 µM (inactive)
18,COc1ccc(OC)c(NC(=O)c2oc3ccccc3c2NC(=O)C2CC2)c1,> 80 µM (inactive)
19,Cc1ccc(C(=O)C(C(=O)/C=C/c2ccccc2)=C2SCCCS2)cc1,11.9 µM
20,COc1ccccc1-c1sc2cc3c(cc2c1-c1ccc(OCCN2CCCCC2)cc1)OCO3,17.7 µM
21,CC(C)N=C(NS(=O)(=O)c1ccccc1)C(Cl)(Cl)Cl,> 80 µM (inactive)
22,C/C(Cl)=C\Cn1c(O)c(N=NC(N)=S)c2cc(Br)ccc21,17.3 µM
23,CCCn1c(SCc2nc3sc(C)c(C)c3c(=O)[nH]2)nc2ccccc2c1=O,> 80 µM (inactive)

row,SMILES,EC50
1,Cc1ccnc(N/C=C(\C#N)c2nc(-c3cccc(Br)c3)cs2)c1,19 µM
2,CCOc1ccc(/C=C/C(O)=C2/C(=O)NC3(C)CC2c2ccccc2O3)cc1OC (configuration not stated),inactive
3,COc1cc(C(=O)Nc2nc(-c3ccc(Cl)cc3)c(C)s2)ccc1OCC(=O)Nc1ccc(F)cc1,17.9 µM
4,CC(NCC(O)COCCC12CC3CC(CC(C3)C1)C2)c1ccccc1 (configuration not stated),> 80 µM (inactive)
5,Nc1nc(Nc2cccc(F)c2)nc2ccccc12,inactive
6,CCN(CC)CCn1c(SCC(=O)Nc2ccc(F)cc2)nc2c(sc3ccccc32)c1=O,> 80 µM (inactive)
7,COc1ccc(C2CC(c3c(-c4ccccc4)c4cc(Cl)ccc4[nH]c3=O)=NN2S(C)(=O)=O)cc1 (configuration not stated),> 80 µM (inactive)
8,OCCNc1nc(Nc2ccc(Cl)c(Cl)c2)nc2ccccc12,10.8 µM
9,COc1ccc(-c2cc(C(F)F)n3ncc(C(=O)N4CCc5ccccc5C4)c3n2)cc1,inactive
10,COc1ccc(C2c3ccc4ccccc4c3Oc3ncn(CCCN(C)C)c(=N)c32)cc1 (configuration not stated),8.25 µM
11,CC(C)(C)c1cc(-c2nc(N)nc(N)n2)c(O)c(C(C)(C)C)c1,inactive
12,Cc1ccc(C)c(N=Cc2c(O)c3ccccc3oc2=O)c1,inactive
13,Oc1ccc(-c2nc3ccc4ccccc4c3c3c2CCC3)cc1O,18 µM
14,Cc1ccc(C2=Nc3ccc(Br)cc3C(c3ccncc3)=NN2)cc1,inactive
15,Cc1cc(N2CCN(c3nc(-c4ccc([N+](=O)[O-])cc4)cs3)CC2)c2ccccc2n1,15.2 µM
16,COc1cccc(-c2sc3ccccc3c2-c2ccc(OCCN(C)C)cc2)c1,12.6 µM
17,CC1=CC(C)[C@H](/C=N/n2c(=O)[nH]c3c([nH]c4ccc(C)cc43)c2=O)C(C)C1 (some centres not stated),inactive
18,O=C(Oc1ccccc1/C=C\C(=O)c1cc2ccccc2o1)c1cccc(F)c1,8.33 µM
19,Brc1ccc2c(c1)C(c1ccc(N3CCOCC3)cc1)=NNC(c1cccs1)=N2,inactive
20,Cc1ccc(NC(=O)c2c(C)nc3sc(C(=O)NC4CCCC4)c(N)c3c2-c2ccco2)c(C)c1,inactive
21,O=C(NC(=S)Nc1ccc(NC(=O)c2cccs2)cc1)c1cc2ccccc2o1,inactive
22,CCOC(=O)c1c2ccc(OCC(=O)N/N=C/c3ccc(C)cc3)cc2n2ccccc12,17.3 µM
23,COc1cccc(-c2c(-c3cc(OC)cc(OC)c3)n(C)c3ccc(-c4cnc(N5CCOCC5)nc4)cc23)c1,inactive
